Measurements published in article PMC9080259, “Dual-cycle immobilization to reuse both enzyme and support by reblossoming enzyme–inorganic hybrid nanoflowers” (RSC Advances, 2018).
Counter-ions that a name gives are not always drawn.

System: T1, Bromelain
T1 construct: commercial native preparation
Test: absorbance at […] nm, hydrolysis
Assay type: biochemical
Conditions: free enzyme; 37 °C; pH not told; substrate of the kinetics taken from the activity assay

SMILES: CCOC(=O)[C@H](CCCN=C(N)N)NC(=O)c1ccccc1 [N-Benzoyl-L-arginine ethyl ester hydrochloride]
- Km: 930 ± 40 µM
